Test system: human neuroblastoma line BE(2)-M17 (M17) cells
Experiment: Measurement of Fe efflux from cells
Type: cell-based
Details: M17 cells pre-loaded with 57Fe, compound 20 μM for 2 h, percentage increase of Fe in media relative to media without compound, read-out: % Fe Efflux Range
Procedure: Method I: Measurement of Fe Efflux from Cells
Compounds of the current invention were assessed for their ability to efflux iron (Fe) from a cell using the following protocol.
The human neuroblastoma line BE(2)-M17 (M17) cell cultures were acquired from Sigma Aldrich (Catalogue #: 95011816). M17 Cells were maintained in Opti-MEM reduced serum media supplemented with 10% fetal bovine serum (Bovogen, SFBSF) and passaged twice weekly. Cells were cultured at 37° C. in the presence of 5% CO2. Culture supplies were sourced from Thermo Fisher unless otherwise stated.
A solution of ^57Fe cold isotope was prepared by dissolving ^57Fe metal (>95% enrichment, Trace Sciences International) in concentrated HCl to give a final concentration of 573 mM. From this master solution, a 10 mM working solution was prepared in sterile water. The working solution was used within two months of preparation.
M17 cells were loaded with iron initially by seeding into 48-well plates at a density of 0.15×10^6 cells per well in 0.5 mL media. After 48 h, old media was discarded. Fresh media was supplemented with 20 μM ^57Fe isotope, from the 10 mM ^57Fe working solution. Cells received 0.2 mL of this ^57Fe enriched media and were returned to the incubator for 20 h. The ability of experimental compounds to efflux iron was determined by the dissolution of compounds in DMSO and diluted in Hanks' Balanced Salt Solution (HBSS) for treatment of M17 cells. After ^57Fe incubation, cells were rinsed twice with HBSS and treated with 0.15 mL trial compound for 2 h at a concentration of 20 μM. All assays included a relevant vehicle (0.4%-0.8% DMSO) as well as a positive control (20 μM). Following the treatment period, 0.1 mL of media was collected from cells and the extracellular ^57Fe content was analysed via inductively coupled mass spectrometry (ICP-MS, Agilent 7700x series instrument).
To perform this protocol the following supplies were purchased from Sigma Aldrich: anhydrous dimethyl sulfoxide (DMSO, Catalogue #: 276855), Hanks' Balanced Salt Solution supplemented with 20 mM HEPES and 4.2 mM Sodium Bicarbonate (HBSS, pH: 7.4, Catalogue #: H1387).
After 2 h the Fe levels in the media were measured and the increase determined as a percentage increase relative to the cell media in the absence of the compound.

SMILES	activation at 20 µM [%]
Oc1cccnc1-c1nc(-c2cccc(F)c2O)n2ncccc12 [Compound 121]	> 150
Oc1cccnc1-c1nc(-c2cccc(Cl)c2O)n2ncccc12 [Compound 122]	> 150
Cc1ccc(O)c(-c2nc(-c3ncccc3O)c3cccnn23)c1 [Compound 123]	> 150
CN(C)Cc1cccc(-c2nc(-c3ccccc3O)c3ccccn23)c1O [Compound 124, 2-((Dimethylamino)methyl)-6-(1-(2-hydroxyphenyl)imidazo[1,5-a]pyridin-3-yl)phenol]	> 150
COc1cnccc1-c1nc(-c2ccccc2O)c2ccccn12 [Compound 125]	< 30
COC(=O)c1ccccc1-c1nc(-c2ncccc2O)c2ccccn12 [Compound 126]	< 30
Oc1cccnc1-c1nc(-c2ccc(Cl)cc2)n2ccccc12 [Compound 127]	< 30
Oc1cccnc1-c1nc(-c2ccccc2F)n2ccccc12 [Compound 130, 2-(3-(2-Fluorophenyl)imidazo[1,5-a]pyridin-1-yl)pyridin-3-ol]	< 30
Oc1ccccc1-c1nc(-c2cccnc2O)c2ccccn12 [Compound 141, 3-(3-(2-Hydroxyphenyl)imidazo[1,5-a]pyridin-1-yl)pyridin-2-ol]	100 to 150
Cc1cccc(-c2nc(-c3cccnc3O)c3ccccn23)c1O [Compound 142]	30 to 100
Oc1cc(Cl)ccc1-c1nc(-c2cccnc2O)c2ccccn12 [Compound 143]	< 30
Oc1ccc(F)cc1-c1nc(-c2cccnc2O)c2ccccn12 [Compound 144, 3-(3-(5-Fluoro-2-hydroxyphenyl)imidazo[1,5-a]pyridin-1-yl)pyridin-2-ol]	100 to 150
Oc1ncccc1-c1nc(-c2cc(F)cc(F)c2O)n2ccccc12 [Compound 145]	100 to 150
CCN(CC)c1ccc(-c2nc(-c3cccnc3O)c3ccccn23)c(O)c1 [Compound 146]	30 to 100
Cc1ccc(O)c(-c2nc(-c3cccnc3O)c3ccccn23)c1 [Compound 147, 3-(3-(2-Hydroxy-5-methylphenyl)imidazo[1,5-a]pyridin-1-yl)pyridin-2-ol]	100 to 150
Oc1ncccc1-c1nc(-c2cccc(F)c2O)n2ccccc12 [Compound 148]	30 to 100
Oc1ccc(Cl)cc1-c1nc(-c2cccnc2O)c2ccccn12 [Compound 149]	30 to 100
Oc1ncccc1-c1nc(-c2cccc(Cl)c2O)n2ccccc12 [Compound 150]	30 to 100
Oc1cccc(F)c1-c1nc(-c2cccnc2O)c2ccccn12 [Compound 152]	30 to 100
COc1ccncc1-c1nc(-c2ccccc2O)n2ccccc12 [Compound 153]	< 30
COc1ccncc1-c1nc(-c2cc(F)ccc2O)n2ccccc12 [Compound 154]	< 30
COc1ccncc1-c1nc(-c2cc(F)cc(F)c2O)n2ccccc12 [Compound 155]	< 30

SMILES	activation at 20 µM [%]
COc1ccncc1-c1nc(-c2c(O)cccc2F)n2ccccc12 [Compound 156]	< 30
COc1ccncc1-c1nc(-c2cccc(F)c2O)n2ccccc12 [Compound 157]	< 30
Oc1ccncc1-c1nc(-c2ccccc2O)n2ccccc12 [Compound 158]	30 to 100
Oc1ccncc1-c1nc(-c2cc(F)ccc2O)n2ccccc12 [Compound 159]	30 to 100
Oc1ccncc1-c1nc(-c2cc(F)cc(F)c2O)n2ccccc12 [Compound 160]	30 to 100
Oc1ccncc1-c1nc(-c2c(O)cccc2F)n2ccccc12 [Compound 161]	30 to 100
Oc1ccncc1-c1nc(-c2cccc(F)c2O)n2ccccc12 [Compound 162]	30 to 100
COc1ccncc1-c1nc(-c2cccc(C)c2O)n2ccccc12 [Compound 163]	< 30
CN(C)Cc1cccc(-c2nc(-c3cccnc3O)c3ccccn23)c1O [Compound 168]	< 30
Cc1ccc(O)c(-c2nc(-c3cnccc3O)c3ccccn23)c1 [Compound 169]	30 to 100
Oc1ccncc1-c1nc(-c2cccc(Cl)c2O)n2ccccc12 [Compound 171]	30 to 100
Oc1ccncc1-c1nc(-c2c(O)cccc2Cl)n2ccccc12 [Compound 172]	30 to 100
Oc1cnccc1-c1nc(-c2ccccc2O)n2ccncc12 [Compound 174]	> 150
Oc1cnccc1-c1nc(-c2cccc(F)c2O)n2ccncc12 [Compound 175]	> 150
Cc1cccc(-c2nc(-c3ccncc3O)c3cnccn23)c1O [Compound 177]	> 150
Oc1cnccc1-c1nc(-c2cc(F)ccc2O)n2ccncc12 [Compound 178]	> 150
Oc1cnccc1-c1nc(-c2cc(Cl)ccc2O)n2ccncc12 [Compound 179]	> 150
Cc1ccc(O)c(-c2nc(-c3ccncc3O)c3cnccn23)c1 [Compound 180]	> 150
Oc1cnccc1-c1nc(-c2ccccc2O)n2ncccc12 [Compound 181]	100 to 150
Cc1ccc(O)c(-c2nc(-c3ccncc3O)c3cccnn23)c1 [Compound 182]	30 to 100
Oc1cnccc1-c1nc(-c2ccccc2O)n2cccnc12 [Compound 185]	100 to 150
Cc1ccc(O)c(-c2nc(-c3ccncc3O)c3ncccn23)c1 [Compound 186]	30 to 100
